In PMC5218480 (PLoS ONE, 2017):

Test system: MV-4-11 cells
Assay: Gene expression microarray analysis (Affymetrix PrimeView) and GSEA
Format: cell-based, human
Parameters: RFU PODN (11730768_x_at) / Fold change /veh PODN (11730768_x_at) / RFU LINC00158 (11744669_a_at) / Fold change /veh LINC00158 (11744669_a_at) / RFU DUSP10 (11751237_a_at) / Fold change /veh DUSP10 (11751237_a_at) / RFU ID3 (11757404_x_at) / Fold change /veh ID3 (11757404_x_at) / RFU PLEKHG5 (11737974_s_at) / Fold change /veh PLEKHG5 (11737974_s_at) / RFU LRRC4B (11730491_at) / Fold change /veh LRRC4B (11730491_at) / RFU GIMAP4 (11747438_a_at) / Fold change /veh GIMAP4 (11747438_a_at) / RFU KRT8 (11758183_x_at) / Fold change /veh KRT8 (11758183_x_at) / RFU CNN1 (11734310_a_at) / Fold change /veh CNN1 (11734310_a_at) / RFU VPS37D (11726825_at) / Fold change /veh VPS37D (11726825_at) / RFU C10orf10 (11716522_x_at) / Fold change /veh C10orf10 (11716522_x_at) / RFU KIR2DL2 /// KIR2DL4 /// KIR2DL5A /// KIR2DL5B /// KIR2DS1 /// KIR2DS2 /// KIR2DS3 /// KIR2DS4 /// KIR3DL3 /// KIR3DL3 /// KIR3DS1 (11738374_at) / Fold change /veh KIR2DL2 /// KIR2DL4 /// KIR2DL5A /// KIR2DL5B /// KIR2DS1 /// KIR2DS2 /// KIR2DS3 /// KIR2DS4 /// KIR3DL3 /// KIR3DL3 /// KIR3DS1 (11738374_at) / RFU C1QL1 (11718748_at) / Fold change /veh C1QL1 (11718748_at) / RFU TMPRSS4 (11747572_a_at) / Fold change /veh TMPRSS4 (11747572_a_at) / RFU HAMP (11756126_x_at) / Fold change /veh HAMP (11756126_x_at) / RFU RNFT2 (11725882_a_at) / Fold change /veh RNFT2 (11725882_a_at) / RFU NR4A2 (11747474_a_at) / Fold change /veh NR4A2 (11747474_a_at) / RFU ABCC12 (11746883_a_at) / Fold change /veh ABCC12 (11746883_a_at) / RFU TMEM136 (11760407_x_at) / Fold change /veh TMEM136 (11760407_x_at) / RFU CLDN22 /// WWC2 (11732394_at) / Fold change /veh CLDN22 /// WWC2 (11732394_at) / RFU HLA-DPB1 (11760878_x_at) / Fold change /veh HLA-DPB1 (11760878_x_at) / RFU SPINT1 (11716480_a_at) / Fold change /veh SPINT1 (11716480_a_at) / RFU GAP43 (11754022_s_at) / Fold change /veh GAP43 (11754022_s_at) / RFU A4GNT (11735810_at) / Fold change /veh A4GNT (11735810_at) / RFU PRB3 (11715151_x_at) / Fold change /veh PRB3 (11715151_x_at) / RFU TUBB4B (11761932_at) / Fold change /veh TUBB4B (11761932_at) / RFU CAPN14 (11732068_a_at) / Fold change /veh CAPN14 (11732068_a_at) / RFU TMCC2 (11721928_a_at) / Fold change /veh TMCC2 (11721928_a_at) / RFU IRGQ (11745062_a_at) / Fold change /veh IRGQ (11745062_a_at) / RFU FAM174B (11720279_a_at) / Fold change /veh FAM174B (11720279_a_at) / RFU TMPRSS4 (11748680_a_at) / Fold change /veh TMPRSS4 (11748680_a_at) / RFU FAM212B (11763350_a_at) / Fold change /veh FAM212B (11763350_a_at) / RFU PLEKHG5 (11743358_a_at) / Fold change /veh PLEKHG5 (11743358_a_at) / RFU ZSCAN30 (11745921_a_at) / Fold change /veh ZSCAN30 (11745921_a_at) / RFU CMKLR1 (11741424_a_at) / Fold change /veh CMKLR1 (11741424_a_at) / RFU LOC101060620 /// MAPK8IP1 (11723275_at) / Fold change /veh LOC101060620 /// MAPK8IP1 (11723275_at) / RFU SPTSSB (11747773_x_at) / Fold change /veh SPTSSB (11747773_x_at) / RFU PRSS12 (11739890_at) / Fold change /veh PRSS12 (11739890_at) / RFU BIN1 (11741810_x_at) / Fold change /veh BIN1 (11741810_x_at) / RFU WNT11 (11732464_a_at) / Fold change /veh WNT11 (11732464_a_at) / RFU C10orf10 (11716521_a_at) / Fold change /veh C10orf10 (11716521_a_at) / RFU C5orf56 (11738089_at) / Fold change /veh C5orf56 (11738089_at) / RFU CYB561 (11721691_x_at) / Fold change /veh CYB561 (11721691_x_at) / RFU ANKRD19P (11752326_a_at) / Fold change /veh ANKRD19P (11752326_a_at) / RFU OR2T12 /// OR2T33 /// OR2T8 (11738714_s_at) / Fold change /veh OR2T12 /// OR2T33 /// OR2T8 (11738714_s_at) / RFU VCAN (11748164_a_at) / Fold change /veh VCAN (11748164_a_at) / RFU JSRP1 (11732532_at) / Fold change /veh JSRP1 (11732532_at) / RFU KRTAP10-11 (11738290_x_at) / Fold change /veh KRTAP10-11 (11738290_x_at) / RFU MYO3A (11730013_a_at) / Fold change /veh MYO3A (11730013_a_at) / RFU EBF3 (11725865_a_at) / Fold change /veh EBF3 (11725865_a_at) / RFU CAMK2N1 (11719241_x_at) / Fold change /veh CAMK2N1 (11719241_x_at) / RFU C5orf56 (11738088_a_at) / Fold change /veh C5orf56 (11738088_a_at) / RFU OLFML3 (11715873_a_at) / Fold change /veh OLFML3 (11715873_a_at) / RFU LOC100653217 /// NTM (11731650_a_at) / Fold change /veh LOC100653217 /// NTM (11731650_a_at) / RFU MAPK11 (11762145_a_at) / Fold change /veh MAPK11 (11762145_a_at) / RFU FIZ1 (11724087_x_at) / Fold change /veh FIZ1 (11724087_x_at) / RFU OASL (11726364_x_at) / Fold change /veh OASL (11726364_x_at) / RFU SOX15 (11748057_x_at) / Fold change /veh SOX15 (11748057_x_at) / RFU CD79A (11719716_a_at) / Fold change /veh CD79A (11719716_a_at) / RFU HIST1H1D (11736915_at) / Fold change /veh HIST1H1D (11736915_at) / RFU CASKIN2 (11723855_a_at) / Fold change /veh CASKIN2 (11723855_a_at) / RFU LOC730098 (11760151_x_at) / Fold change /veh LOC730098 (11760151_x_at) / RFU OR4N2 (11742367_at) / Fold change /veh OR4N2 (11742367_at) / RFU PRRT2 (11749266_a_at) / Fold change /veh PRRT2 (11749266_a_at) / RFU SNX32 (11753110_a_at) / Fold change /veh SNX32 (11753110_a_at) / RFU CDHR5 (11726645_a_at) / Fold change /veh CDHR5 (11726645_a_at) / RFU RCAN1 (11760418_a_at) / Fold change /veh RCAN1 (11760418_a_at) / RFU FAM167A (11723789_a_at) / Fold change /veh FAM167A (11723789_a_at) / RFU FAM26E (11764081_at) / Fold change /veh FAM26E (11764081_at) / RFU ISYNA1 (11749810_s_at) / Fold change /veh ISYNA1 (11749810_s_at) / RFU ACY1 (11761880_at) / Fold change /veh ACY1 (11761880_at) / RFU 11764098_at / Fold change /veh 11764098_at / RFU SAMD14 (11745864_x_at) / Fold change /veh SAMD14 (11745864_x_at) / RFU NPB (11741838_a_at) / Fold change /veh NPB (11741838_a_at) / RFU TMPRSS6 (11731388_a_at) / Fold change /veh TMPRSS6 (11731388_a_at) / RFU KRTAP10-2 (11738614_at) / Fold change /veh KRTAP10-2 (11738614_at) / RFU ARHGAP8 /// PRR5-ARHGAP8 (11727945_x_at) / Fold change /veh ARHGAP8 /// PRR5-ARHGAP8 (11727945_x_at) / RFU KRTAP5-7 /// NADSYN1 (11734609_at) / Fold change /veh KRTAP5-7 /// NADSYN1 (11734609_at) / RFU RASL12 (11751679_a_at) / Fold change /veh RASL12 (11751679_a_at) / RFU CDKN2B (11736163_a_at) / Fold change /veh CDKN2B (11736163_a_at) / RFU PRF1 (11729649_at) / Fold change /veh PRF1 (11729649_at) / RFU, ZNF638 /// ZNF638-IT1 / Fold change vs veh, ZNF638 /// ZNF638-IT1 / RFU, PANK3 / Fold change vs veh, PANK3 / RFU, SH3YL1 / Fold change vs veh, SH3YL1 / RFU, ZEB2 / Fold change vs veh, ZEB2 / RFU, NRIP1 / Fold change vs veh, NRIP1 / RFU, PTTG1IP / Fold change vs veh, PTTG1IP / RFU, CAPN2 / Fold change vs veh, CAPN2 / RFU, MED14 / Fold change vs veh, MED14 / RFU, SNORA58 / Fold change vs veh, SNORA58 / RFU, C1orf63 / Fold change vs veh, C1orf63 / RFU, LRRFIP1 / Fold change vs veh, LRRFIP1 / RFU, NDUFAF7 / Fold change vs veh, NDUFAF7 / RFU, SLC12A2 / Fold change vs veh, SLC12A2 / RFU, IBTK / Fold change vs veh, IBTK / RFU, ESF1 / Fold change vs veh, ESF1 / Fold change vs veh, TMEM50B / RFU, TAOK1 / Fold change vs veh, TAOK1 / RFU, ACBD3 / Fold change vs veh, ACBD3 / RFU, TMA16 / Fold change vs veh, TMA16 / RFU, RWDD3 / Fold change vs veh, RWDD3 / RFU, BCAT1 / Fold change vs veh, BCAT1 / RFU, EDEM3 / Fold change vs veh, EDEM3 / RFU, TMEM33 / Fold change vs veh, TMEM33 / RFU, WDR75 / Fold change vs veh, WDR75 / RFU, AHCTF1 / Fold change vs veh, AHCTF1 / RFU, TFRC / Fold change vs veh, TFRC / RFU, ZDHHC17 / Fold change vs veh, ZDHHC17 / RFU, NOM1 / Fold change vs veh, NOM1 / RFU, ARL8B / Fold change vs veh, ARL8B / RFU, ZBTB11 / Fold change vs veh, ZBTB11 / RFU, TAMM41 / Fold change vs veh, TAMM41 / RFU, KIAA1704 /// LOC100996395 / Fold change vs veh, KIAA1704 /// LOC100996395 / RFU, ING1 / Fold change vs veh, ING1 / RFU, TRMT61B / Fold change vs veh, TRMT61B / RFU, FUBP3 / Fold change vs veh, FUBP3 / RFU, TP53 / Fold change vs veh, TP53 / RFU, TNKS2 / Fold change vs veh, TNKS2 / RFU, ZFP14 / Fold change vs veh, ZFP14 / RFU, ACTR2 / Fold change vs veh, ACTR2 / RFU, PPP3R1 / Fold change vs veh, PPP3R1 / RFU, PIK3R1 / Fold change vs veh, PIK3R1 / RFU, HNRNPA1 / Fold change vs veh, HNRNPA1 / RFU, RNF170 / Fold change vs veh, RNF170 / RFU, ZNF28 / Fold change vs veh, ZNF28 / RFU, RNGTT / Fold change vs veh, RNGTT / RFU, OGT / Fold change vs veh, OGT / RFU, BRD1 / Fold change vs veh, BRD1 / RFU, MARS / Fold change vs veh, MARS / RFU, ZNF655 / Fold change vs veh, ZNF655 / RFU, FAHD1 / Fold change vs veh, FAHD1 / RFU, BDP1 / Fold change vs veh, BDP1 / RFU, LRRCC1 / Fold change vs veh, LRRCC1 / RFU, ARID1A / Fold change vs veh, ARID1A / RFU, ZNF146 / Fold change vs veh, ZNF146 / RFU, ZNF330 / Fold change vs veh, ZNF330 / RFU, GPN3 / Fold change vs veh, GPN3 / RFU, C9orf123 / Fold change vs veh, C9orf123 / RFU, N4BP2L2 / Fold change vs veh, N4BP2L2 / RFU, ARFIP1 / Fold change vs veh, ARFIP1 / RFU, FAM179B / Fold change vs veh, FAM179B / RFU, BCL10 / Fold change vs veh, BCL10 / RFU, UHRF1BP1L / Fold change vs veh, UHRF1BP1L / RFU, BET1 / Fold change vs veh, BET1 / RFU, CNOT2 / Fold change vs veh, CNOT2 / RFU, ZNF268 / Fold change vs veh, ZNF268 / Fold change vs veh, ZNF507 / RFU, DGCR2 / Fold change vs veh, DGCR2 / RFU, WDSUB1 / Fold change vs veh, WDSUB1 / Fold change vs veh, HSP90B1 /// MIR3652 / RFU, ADSS / Fold change vs veh, ADSS / RFU, GK / Fold change vs veh, GK / RFU, ZNF148 / Fold change vs veh, ZNF148 / RFU, TAF9 / Fold change vs veh, TAF9 / RFU, SLC1A5 / Fold change vs veh, SLC1A5 / RFU, SLMO2 / Fold change vs veh, SLMO2 / RFU, ABCC4 / Fold change vs veh, ABCC4 / RFU, LOC101060439 /// RAP1B / Fold change vs veh, LOC101060439 /// RAP1B / RFU, RFX7 / Fold change vs veh, RFX7 / RFU, GTPBP10 / Fold change vs veh, GTPBP10 / RFU, CNEP1R1 / Fold change vs veh, CNEP1R1 / RFU, BIVM-ERCC5 /// ERCC5 / Fold change vs veh, BIVM-ERCC5 /// ERCC5 / RFU, ILF3 / Fold change vs veh, ILF3 / RFU 11762660_at / Fold change /veh 11762660_at / RFU VCAN (11757783_s_at) / Fold change /veh VCAN (11757783_s_at) / RFU DDX43 (11728927_at) / Fold change /veh DDX43 (11728927_at) / RFU KRT8 (11758188_x_at) / Fold change /veh KRT8 (11758188_x_at) / RFU NKD1 (11759106_at) / Fold change /veh NKD1 (11759106_at) / RFU SRD5A1 (11742802_a_at) / Fold change /veh SRD5A1 (11742802_a_at) / RFU TPSAB1 /// TPSB2 (11721975_s_at) / Fold change /veh TPSAB1 /// TPSB2 (11721975_s_at) / RFU GSTM3 (11746129_a_at) / Fold change /veh GSTM3 (11746129_a_at) / RFU IL23R (11737362_x_at) / Fold change /veh IL23R (11737362_x_at) / RFU TMEM51 (11727254_a_at) / Fold change /veh TMEM51 (11727254_a_at) / RFU PIWIL2 (11732686_x_at) / Fold change /veh PIWIL2 (11732686_x_at) / RFU ORM1 (11744905_x_at) / Fold change /veh ORM1 (11744905_x_at) / RFU CCDC152 (11743942_at) / Fold change /veh CCDC152 (11743942_at) / RFU ECM1 (11717891_a_at) / Fold change /veh ECM1 (11717891_a_at) / RFU IL23R (11748794_a_at) / Fold change /veh IL23R (11748794_a_at) / RFU TNFAIP8L3 (11732012_x_at) / Fold change /veh TNFAIP8L3 (11732012_x_at) / RFU MBOAT4 (11741988_at) / Fold change /veh MBOAT4 (11741988_at) / RFU 11764193_at / Fold change /veh 11764193_at / RFU TMEM53 (11763286_at) / Fold change /veh TMEM53 (11763286_at) / RFU MAGEB2 (11727129_at) / Fold change /veh MAGEB2 (11727129_at) / RFU TMEM200A (11744735_a_at) / Fold change /veh TMEM200A (11744735_a_at) / RFU CCDC152 (11751479_a_at) / Fold change /veh CCDC152 (11751479_a_at) / RFU FAM211A (11726209_a_at) / Fold change /veh FAM211A (11726209_a_at) / RFU RGS16 (11746705_a_at) / Fold change /veh RGS16 (11746705_a_at) / RFU VCAN (11755009_s_at) / Fold change /veh VCAN (11755009_s_at) / RFU RHOB (11743442_s_at) / Fold change /veh RHOB (11743442_s_at) / RFU RGS16 (11720943_a_at) / Fold change /veh RGS16 (11720943_a_at) / RFU RGS16 (11720944_at) / Fold change /veh RGS16 (11720944_at) / RFU, VPS4B / Fold change vs veh, VPS4B / RFU, CREB1 / Fold change vs veh, CREB1 / RFU, DNAJC13 / Fold change vs veh, DNAJC13 / RFU, GNAQ / Fold change vs veh, GNAQ / RFU, CDK5R1 / Fold change vs veh, CDK5R1 / RFU, ZRANB3 / Fold change vs veh, ZRANB3 / RFU, CUL4A / Fold change vs veh, CUL4A / RFU, CCNY / Fold change vs veh, CCNY / RFU, UFL1 / Fold change vs veh, UFL1 / RFU, COG3 / Fold change vs veh, COG3 / RFU, DIAPH2 / Fold change vs veh, DIAPH2 / RFU, SKA2 / Fold change vs veh, SKA2 / RFU, AFF3 / Fold change vs veh, AFF3 / RFU, LMF1 / Fold change vs veh, LMF1 / RFU, IPO11 / Fold change vs veh, IPO11 / RFU, DFFB / Fold change vs veh, DFFB / RFU, FOXP1 / Fold change vs veh, FOXP1 / RFU, CARD8 / Fold change vs veh, CARD8 / RFU, STRN3 / Fold change vs veh, STRN3 / RFU, ADK / Fold change vs veh, ADK / RFU, RASSF2 / Fold change vs veh, RASSF2 / RFU, WIPF1 / Fold change vs veh, WIPF1 / RFU, LARP1B / Fold change vs veh, LARP1B / RFU, RASA1 / Fold change vs veh, RASA1 / RFU, RB1 / Fold change vs veh, RB1 / RFU, PPFIA1 / Fold change vs veh, PPFIA1 / RFU, MAT2A / Fold change vs veh, MAT2A / RFU, CCT5 / Fold change vs veh, CCT5 / RFU, WDR92 / Fold change vs veh, WDR92 / RFU, CUX1 / Fold change vs veh, CUX1 / RFU, TTC7A / Fold change vs veh, TTC7A / RFU, TMEM135 / Fold change vs veh, TMEM135 / RFU, DEPTOR / Fold change vs veh, DEPTOR / RFU, CPM / Fold change vs veh, CPM / RFU, DNAJB6 / Fold change vs veh, DNAJB6 / RFU, CACNA2D3 / Fold change vs veh, CACNA2D3 / RFU, DTX4 / Fold change vs veh, DTX4 / RFU, TFCP2 / Fold change vs veh, TFCP2 / RFU, GMCL1 /// GMCL1P1 / Fold change vs veh, GMCL1 /// GMCL1P1 / RFU, AEBP2 / Fold change vs veh, AEBP2 / RFU, SNHG1 /// SNORD22 /// SNORD25 /// SNORD26 /// SNORD27 /// SNORD28 /// SNORD29 /// SNORD31 / Fold change vs veh, SNHG1 /// SNORD22 /// SNORD25 /// SNORD26 /// SNORD27 /// SNORD28 /// SNORD29 /// SNORD31 / Fold change (Aza/veh), C12orf56 (ProbeSet 11735607_a_at) / Fold change (ACY-1035/veh), C12orf56 (ProbeSet 11735607_a_at) / Fold change (Aza/veh), FGFR1OP (ProbeSet 11751329_s_at) / Fold change (ACY-1035/veh), FGFR1OP (ProbeSet 11751329_s_at) / Fold change (Aza/veh), VPS36 (ProbeSet 11739960_a_at) / Fold change (ACY-1035/veh), VPS36 (ProbeSet 11739960_a_at) / RFU SYPL1 (11715823_x_at) / Fold change /veh SYPL1 (11715823_x_at) / RFU IGFBP7 (11715501_s_at) / Fold change /veh IGFBP7 (11715501_s_at) / RFU REEP3 (11722064_at) / Fold change /veh REEP3 (11722064_at) / RFU IGLL1 (11728026_x_at) / Fold change /veh IGLL1 (11728026_x_at): dose or concentration left out as unconfirmed
Settings: ProbeSet 11739106_a_at; LIST B

**Q.** `Nc1ncn([C@@H]2O[C@H](CO)[C@@H](O)[C@H]2O)c(=O)n1` [azacitidine] was tested. Which “RFU, TMEM33” value did it give?
**A.** The value was 268.42 RFU.
